Reference: patent US9995732B2, “Evaporative edge lithography of a liposomal drug microarray for cell migration assays” (FLORIDA STATE UNIVERSITY RESEARCH FOUNDATION, priority 2012, dated 2018)
“Also recorded” adds a separate entry of the source.

Columns and labels:
HeLa cells [1] = experiment: Cell adhesion experiments on lipid films of different multilayer thickness; format: cell-based
Protocol: Lipids were dissolved in ethanol and added to each channel in increasing amounts from 0.2 ng to 20 μg. Tests for cell attachment were performed by seeding HeLa cells into assay channel with varying amounts of lipid films. Cells were allowed to attach for two hours before washing the channels repeatedly 5 times. Prior to counting, cells were incubated with live-cell fluorescent dye (SYTO9, Invitrogen). The number of cells per square micron area (μm^2) that remained attached was counted manually. Experiments for cell adhesion where performed in three replicates. Values for cell density of each treatment were determined by averaging the number of cells in 5 random 100 μm^2 areas in a single image captured at a 4× magnification.
(§1) A student t-test was performed to determine statistical significance between means of each sample (p-value <0.05). Error bars in figures are standard error of the mean for n samples. Characterizing the edge lipid films produced a total of n=20 samples and middle lipid film measurements produced n=10 samples. Cell density experiments were performed in triplicates (n=3). All samples for cell migration were taken in triplicate and replicated three times (n=9).

HeLa cells [2] = experiment: Cell migration assay of HeLa cells on lipid multilayer films made by evaporative edge lithography; format: cell-based; settings: for migration rate of HeLa cells versus lipid thickness: lipid only; for migration rate of HeLa cells versus lipid thickness / collective cell migration compared to control group: 24 hours; for HeLa cell migration (qualitative effect): drug delivered from encapsulated lipid films; for collective cell migration compared to control group: lipid encapsulated film
Protocol: Polydimethylsiloxane (PDMS) was cured from the SYLGARD® 184 silicone elastorner kit in a 60° C. oven overnight. PDMS strips of 15 mm long by 1 mm wide were placed between 500-800 μm apart on prepared glass coverslips before addition of lipid mixtures. 1,2-dioleoyl-3-trimethylammonium-propane (chloride salt) (DOTAP) and 1,2-dioleoyl-sn-glycerol-3-phosphoethanolamine-N-(lissamine rhodamine b sulfonyl) (ammonium salt) (DOPE-rhodamine) were purchased from Avanti Polar Lipids. To create lipid only solutions, DOTAP was mixed with 1 molar percent (mol %) DOPE-rhodamine in chloroform and dried overnight in a vacuum pump desiccators at 16 LM 15 Torr 7.4 PSIG to remove solvent. Ethanol (100%) was added to suspend dried lipid powder and 1 μl was deposited in each PDMS channel and the array was dried overnight in a vacuum to remove residual ethanol. A similar procedure was used for docetaxel encapsulated lipid solutions and the drug was dissolved in ethanol prior to adding to the dried lipid powder.
The prepared assays on glass coverslips were placed individually wells of a 6-well plate for cell culture. For experiments, cells were seeded onto the prepared patterned glass coverslips by gently pipetting the cell suspension (2.5×10^5 cells/ml, 1 ml per coverslip) directly over each PDMS channel to allow cells to settle in them. The same method was used to seed other parts of the slide for use as control areas. Cells were allowed to settle for 1-2 hours before the PDMS barriers were removed to promote cell migration. After barrier removal, the coverslips were washed once with HBSS and replaced with fresh growth media. The cells were incubated over the patterned areas for up to 24 hours. Width of each cell strip was measure by hand with Nikon Elements 4.0 analysis software and the average migration rate for each strip was determined with the following equation: Migration Rate (μm/hr)=(WidthT=24 hrs−WidthT=0 hrs/24hrs.
Width is the average width in micrometers (μm) of the cell monolayer measured either at the beginning of the experiment (T=0 hrs) or at the end (T=24 hours).
The images for cell migration were captured on a Nikon Ti Eclipse inverted microscope with 4× or 10× objectives. Images for cell migration were taken after barrier removal and once again 24 hours after incubation period in phase contrast. Fluorescent filters used were B-2E/C and G-2E/C for red and green emitting dyes.
as §1

[3] = cited from earlier work
[4] = cited from earlier work; remark: listed apart in the source

Structure (SMILES)	HeLa cell adhesion to lipid films compared to untreated glass (HeLa cells [1]; concentrations higher than 20 μg/ml, 2 hours of incubation)	HeLa cell adhesion to lipid films (HeLa cells [1]; films created from 20 ng (initial solution 20 μg/ml) or lower, 2 hours of incubation)	HeLa cell morphology and viability on lipid multilayers (HeLa cells [1]; lipid multilayers created from 200 ng of lipids or more, compared to thinner multilayers)	migration rate of HeLa cells versus lipid thickness (HeLa cells [2]; channels from lipid solutions of 20 μg/ml or lower)	migration rate of HeLa cells versus lipid thickness (HeLa cells [2]; lipid solutions above 20 μg/ml)	HeLa cell migration (qualitative effect) (HeLa cells [2])	log P [3]	migration rate of the cells, dose dependence (HeLa cells [2]; delivered by encapsulated lipid films, over 24 hours)	collective cell migration compared to control group (HeLa cells [2]; docetaxel to lipid ratio (by mass) 1:2)	collective cell migration compared to control group (HeLa cells [2]; docetaxel to lipid ratio (by mass) 1:4)	collective cell migration compared to control group (HeLa cells [2]; docetaxel to lipid ratio (by mass) 1:10)	solubility in water [4]
CCCCCCCC/C=C\CCCCCCCC(=O)OCC(C[N+](C)(C)C)OC(=O)CCCCCCC/C=C\CCCCCCCC.[Cl-] (stereo not shown) [DOTAP, 1,2-dioleoyl-3-trimethylammonium-propane (chloride salt)]	adhere significantly less (p<0.05)	adherent	exhibited abnormal morphology and appeared dead	not significantly (p<0.05) affected	significantly hindered	–	–	–	–	–	–	–
C[C@H]1CCC/C=C/[C@@H]2C[C@H](O)C[C@H]2[C@H](O)/C=C/C(=O)O1 [brefeldin A]	–	–	–	–	–	inhibited	1.61	–	–	–	–	–
CC(=O)O[C@@]12CO[C@@H]1C[C@H](O)[C@@]1(C)C(=O)[C@H](O)C3=C(C)[C@@H](OC(=O)[C@H](O)[C@@H](NC(=O)OC(C)(C)C)c4ccccc4)C[C@@](O)([C@@H](OC(=O)c4ccccc4)[C@H]21)C3(C)C [docetaxel]	–	–	–	–	–	significantly inhibit cellular migration; also recorded: inhibited	–	reduced the migration rate of the cells dose-dependently	significantly (p<0.05) reduce collective cell migration	significantly (p<0.05) reduce collective cell migration	significantly (p<0.05) reduce collective cell migration	less than 0.025 mg/L
